{"source": "PubChem BioAssay (NCI)", "assay_in_all_cases": "NCI-60 cell line screen, 48 h", "key": {"[1]": {"test_system": "ACHN renal"}, "[2]": {"test_system": "SK-OV-3 ovarian"}, "[3]": {"test_system": "LOX IMVI melanoma"}, "[4]": {"test_system": "MCF7 breast"}, "[5]": {"test_system": "HS 578T breast"}, "[6]": {"test_system": "T-47D breast"}, "[7]": {"test_system": "M14 melanoma"}, "[8]": {"test_system": "MDA-MB-231 breast"}, "[9]": {"test_system": "786-0 renal"}, "[10]": {"test_system": "SW-620 colon"}, "[11]": {"test_system": "CAKI-1 renal"}, "[12]": {"test_system": "RPMI-8226 leukemia"}, "[13]": {"test_system": "UO-31 renal"}, "[14]": {"test_system": "U251 CNS"}, "[15]": {"test_system": "HCT-15 colon"}, "[16]": {"test_system": "OVCAR-4 ovarian"}, "[17]": {"test_system": "COLO 205 colon"}, "[18]": {"test_system": "SF-539 CNS"}, "[19]": {"test_system": "MDA-MB-435"}, "[20]": {"test_system": "TK-10 renal"}, "[21]": {"test_system": "SF-268 CNS"}, "[22]": {"test_system": "SNB-19 CNS"}, "[23]": {"test_system": "HCC-2998 colon"}, "[24]": {"test_system": "SN12C renal"}, "[25]": {"test_system": "HCT-116 colon"}, "[26]": {"test_system": "SK-MEL-5 melanoma"}, "[27]": {"test_system": "NCI/ADR-RES ovarian"}, "[28]": {"test_system": "UACC-257 melanoma"}, "[29]": {"test_system": "OVCAR-3 ovarian"}, "[30]": {"test_system": "IGROV1 ovarian"}, "[31]": {"test_system": "SF-295 CNS"}, "[32]": {"test_system": "UACC-62 melanoma"}, "[33]": {"test_system": "SK-MEL-2 melanoma"}, "[34]": {"test_system": "OVCAR-8 ovarian"}, "[35]": {"test_system": "NCI-H522 lung"}, "[36]": {"test_system": "HOP-92 NSCLC"}, "[37]": {"test_system": "HT29 colon"}, "[38]": {"test_system": "MALME-3M melanoma"}, "[39]": {"test_system": "A549 NSCLC"}, "[40]": {"test_system": "SNB-75 CNS"}, "[41]": {"test_system": "OVCAR-5 ovarian"}, "[42]": {"test_system": "CCRF-CEM leukemia"}, "[43]": {"test_system": "A498 renal"}, "[44]": {"test_system": "RXF 393 renal"}, "[45]": {"test_system": "HOP-62 NSCLC"}, "[46]": {"test_system": "DU-145 prostate"}, "[47]": {"test_system": "KM12 colon"}, "[48]": {"test_system": "NCI-H226 lung"}, "[49]": {"test_system": "BT-549 breast"}, "[50]": {"test_system": "EKVX NSCLC"}, "[51]": {"test_system": "NCI-H460 lung"}, "[52]": {"test_system": "SK-MEL-28 melanoma"}, "[53]": {"test_system": "PC-3 prostate"}}, "note": "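Protocol summary: plate cells (96-well), add compound at 5 concentrations, incubate 48 h, interpolate endpoints linearly. GI50 marks 50% less growth. TGI denotes the concentration required for complete inhibition of growth.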"}
{"smiles": "COc1cc2nc(-c3ccc(C(F)(F)F)cc3)cc(OCCCNCC3CCCO3)c2cc1OC", "note": "(stereo unspecified)", "values": [{"measurement": "GI50", "setting": "[1]", "result": 4.89, "unit": "µM"}, {"measurement": "TGI", "setting": "[1]", "result": 18.2, "unit": "µM"}, {"measurement": "GI50", "setting": "[2]", "result": 12.4, "unit": "µM"}, {"measurement": "TGI", "setting": "[2]", "result": 25.8, "unit": "µM"}, {"measurement": "GI50", "setting": "[3]", "result": 1.61, "unit": "µM"}, {"measurement": "TGI", "setting": "[3]", "result": 4.33, "unit": "µM"}, {"measurement": "GI50", "setting": "[4]", "result": 3.23, "unit": "µM"}, {"measurement": "TGI", "setting": "[4]", "result": 15.9, "unit": "µM"}, {"measurement": "GI50", "setting": "[5]", "result": 10.4, "unit": "µM"}, {"measurement": "TGI", "setting": "[5]", "result": 25.8, "unit": "µM"}, {"measurement": "GI50", "setting": "[6]", "result": 4.06, "unit": "µM"}, {"measurement": "TGI", "setting": "[6]", "result": 19, "unit": "µM"}, {"measurement": "GI50", "setting": "[7]", "result": 3.09, "unit": "µM"}, {"measurement": "TGI", "setting": "[7]", "result": 12.4, "unit": "µM"}, {"measurement": "GI50", "setting": "[8]", "result": 3.79, "unit": "µM"}, {"measurement": "TGI", "setting": "[8]", "result": 17, "unit": "µM"}, {"measurement": "GI50", "setting": "[9]", "result": 6.44, "unit": "µM"}, {"measurement": "TGI", "setting": "[9]", "result": 21.1, "unit": "µM"}, {"measurement": "GI50", "setting": "[10]", "result": 8.16, "unit": "µM"}, {"measurement": "TGI", "setting": "[10]", "result": 22, "unit": "µM"}, {"measurement": "GI50", "setting": "[11]", "result": 1.74, "unit": "µM"}, {"measurement": "TGI", "setting": "[11]", "result": 5.32, "unit": "µM"}, {"measurement": "GI50", "setting": "[12]", "result": 2.39, "unit": "µM"}, {"measurement": "TGI", "setting": "[12]", "result": 12.2, "unit": "µM"}, {"measurement": "GI50", "setting": "[13]", "result": 2.53, "unit": "µM"}, {"measurement": "TGI", "setting": "[13]", "result": 15.6, "unit": "µM"}, {"measurement": "GI50", "setting": "[14]", "result": 7.37, "unit": "µM"}, {"measurement": "TGI", "setting": "[14]", "result": 26.5, "unit": "µM"}, {"measurement": "GI50", "setting": "[15]", "result": 3.1, "unit": "µM"}, {"measurement": "TGI", "setting": "[15]", "result": 12.3, "unit": "µM"}, {"measurement": "GI50", "setting": "[16]", "result": 9.01, "unit": "µM"}, {"measurement": "TGI", "setting": "[16]", "result": 21.5, "unit": "µM"}, {"measurement": "GI50", "setting": "[17]", "result": 3.09, "unit": "µM"}, {"measurement": "TGI", "setting": "[17]", "result": 17.7, "unit": "µM"}, {"measurement": "GI50", "setting": "[18]", "result": 11.2, "unit": "µM"}, {"measurement": "TGI", "setting": "[18]", "result": 24, "unit": "µM"}, {"measurement": "GI50", "setting": "[19]", "result": 3.13, "unit": "µM"}, {"measurement": "TGI", "setting": "[19]", "result": 11.7, "unit": "µM"}, {"measurement": "GI50", "setting": "[20]", "result": 12.2, "unit": "µM"}, {"measurement": "TGI", "setting": "[20]", "result": 25.3, "unit": "µM"}, {"measurement": "GI50", "setting": "[21]", "result": 10.4, "unit": "µM"}, {"measurement": "TGI", "setting": "[21]", "result": 25, "unit": "µM"}, {"measurement": "GI50", "setting": "[22]", "result": 13.3, "unit": "µM"}, {"measurement": "TGI", "setting": "[22]", "result": 28.4, "unit": "µM"}, {"measurement": "GI50", "setting": "[23]", "result": 10.3, "unit": "µM"}, {"measurement": "TGI", "setting": "[23]", "result": 23.6, "unit": "µM"}, {"measurement": "GI50", "setting": "[24]", "result": 4.63, "unit": "µM"}, {"measurement": "TGI", "setting": "[24]", "result": 18.4, "unit": "µM"}, {"measurement": "GI50", "setting": "[25]", "result": 3.45, "unit": "µM"}, {"measurement": "TGI", "setting": "[25]", "result": 14.8, "unit": "µM"}, {"measurement": "GI50", "setting": "[26]", "result": 11.7, "unit": "µM"}, {"measurement": "TGI", "setting": "[26]", "result": 24.7, "unit": "µM"}, {"measurement": "GI50", "setting": "[27]", "result": 6.92, "unit": "µM"}, {"measurement": "TGI", "setting": "[27]", "result": 24.5, "unit": "µM"}, {"measurement": "GI50", "setting": "[28]", "result": 2.01, "unit": "µM"}, {"measurement": "TGI", "setting": "[28]", "result": 4.79, "unit": "µM"}, {"measurement": "GI50", "setting": "[29]", "result": 12.3, "unit": "µM"}, {"measurement": "TGI", "setting": "[29]", "result": 27.5, "unit": "µM"}, {"measurement": "GI50", "setting": "[30]", "result": 4.41, "unit": "µM"}, {"measurement": "TGI", "setting": "[30]", "result": 18.8, "unit": "µM"}, {"measurement": "GI50", "setting": "[31]", "result": 8.68, "unit": "µM"}, {"measurement": "TGI", "setting": "[31]", "result": 22, "unit": "µM"}, {"measurement": "GI50", "setting": "[32]", "result": 3.54, "unit": "µM"}, {"measurement": "TGI", "setting": "[32]", "result": 14.5, "unit": "µM"}, {"measurement": "GI50", "setting": "[33]", "result": 13.7, "unit": "µM"}, {"measurement": "TGI", "setting": "[33]", "result": 26.9, "unit": "µM"}, {"measurement": "GI50", "setting": "[34]", "result": 3.72, "unit": "µM"}, {"measurement": "TGI", "setting": "[34]", "result": 16.6, "unit": "µM"}, {"measurement": "GI50", "setting": "[35]", "result": 3.05, "unit": "µM"}, {"measurement": "TGI", "setting": "[35]", "result": 13.8, "unit": "µM"}, {"measurement": "GI50", "setting": "[36]", "result": 1.57, "unit": "µM"}, {"measurement": "TGI", "setting": "[36]", "result": 7.85, "unit": "µM"}, {"measurement": "GI50", "setting": "[37]", "result": 2.98, "unit": "µM"}, {"measurement": "TGI", "setting": "[37]", "result": 11.2, "unit": "µM"}, {"measurement": "GI50", "setting": "[38]", "result": 3.17, "unit": "µM"}, {"measurement": "TGI", "setting": "[38]", "result": 13.8, "unit": "µM"}, {"measurement": "GI50", "setting": "[39]", "result": 4.43, "unit": "µM"}, {"measurement": "TGI", "setting": "[39]", "result": 21.2, "unit": "µM"}, {"measurement": "GI50", "setting": "[40]", "result": 8.45, "unit": "µM"}, {"measurement": "TGI", "setting": "[40]", "result": 21.9, "unit": "µM"}, {"measurement": "GI50", "setting": "[41]", "result": 4.09, "unit": "µM"}, {"measurement": "TGI", "setting": "[41]", "result": 17.5, "unit": "µM"}, {"measurement": "GI50", "setting": "[42]", "result": 6.61, "unit": "µM"}, {"measurement": "TGI", "setting": "[42]", "result": 24.4, "unit": "µM"}, {"measurement": "GI50", "setting": "[43]", "result": 20.6, "unit": "µM"}, {"measurement": "TGI", "setting": "[43]", "result": 37, "unit": "µM"}, {"measurement": "GI50", "setting": "[44]", "result": 1.38, "unit": "µM"}, {"measurement": "TGI", "setting": "[44]", "result": 5.23, "unit": "µM"}, {"measurement": "GI50", "setting": "[45]", "result": 6.01, "unit": "µM"}, {"measurement": "TGI", "setting": "[45]", "result": 21.4, "unit": "µM"}, {"measurement": "GI50", "setting": "[46]", "result": 9.03, "unit": "µM"}, {"measurement": "TGI", "setting": "[46]", "result": 21.7, "unit": "µM"}, {"measurement": "GI50", "setting": "[47]", "result": 5.49, "unit": "µM"}, {"measurement": "TGI", "setting": "[47]", "result": 20.5, "unit": "µM"}, {"measurement": "GI50", "setting": "[48]", "result": 2.51, "unit": "µM"}, {"measurement": "TGI", "setting": "[48]", "result": 8.6, "unit": "µM"}, {"measurement": "GI50", "setting": "[49]", "result": 6.92, "unit": "µM"}, {"measurement": "TGI", "setting": "[49]", "result": 21.1, "unit": "µM"}, {"measurement": "GI50", "setting": "[50]", "result": 4.22, "unit": "µM"}, {"measurement": "TGI", "setting": "[50]", "result": 18.6, "unit": "µM"}, {"measurement": "GI50", "setting": "[51]", "result": 3.89, "unit": "µM"}, {"measurement": "TGI", "setting": "[51]", "result": 15.8, "unit": "µM"}, {"measurement": "GI50", "setting": "[52]", "result": 5.77, "unit": "µM"}, {"measurement": "TGI", "setting": "[52]", "result": 19.3, "unit": "µM"}, {"measurement": "GI50", "setting": "[53]", "result": 3.8, "unit": "µM"}, {"measurement": "TGI", "setting": "[53]", "result": 17.2, "unit": "µM"}]}
